Structures are written as SMILES.

This experiment addresses T1, human M4 muscarinic acetylcholine receptor (Homo sapiens, UniProt P08173).
T1 construct: expressed in transfected cells; host or cells: CHO-K1
T1 sequence (P08173 1-479): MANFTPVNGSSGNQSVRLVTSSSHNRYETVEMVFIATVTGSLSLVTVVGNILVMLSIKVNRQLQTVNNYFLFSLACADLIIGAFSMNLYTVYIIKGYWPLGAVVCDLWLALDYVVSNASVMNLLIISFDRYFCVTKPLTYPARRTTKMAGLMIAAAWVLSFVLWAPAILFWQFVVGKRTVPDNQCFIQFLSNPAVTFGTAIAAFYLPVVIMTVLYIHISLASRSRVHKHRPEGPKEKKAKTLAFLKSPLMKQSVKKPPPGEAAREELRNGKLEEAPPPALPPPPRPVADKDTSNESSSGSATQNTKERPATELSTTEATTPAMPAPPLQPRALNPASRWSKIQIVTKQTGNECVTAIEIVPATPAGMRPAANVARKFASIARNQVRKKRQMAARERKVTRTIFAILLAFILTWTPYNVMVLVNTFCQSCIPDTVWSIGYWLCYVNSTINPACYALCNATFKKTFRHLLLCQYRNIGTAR
The experiment in a line: human FLIPR-based M4 PAM assay, CHO-K1 cells stably transfected with human M4 receptor and chimeric G-protein Gαqi5. It is filed as cell-based. As to conditions: inflection point (IP) of dose response curve; acetylcholine added at 20% of maximum response; CHO-K1 human M4/Gαqi5, FLIPR Tetra. Put shortly:
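The FLIPR read recorded 4 min after compound was added across a concentration range, then 3.5 min after acetylcholine giving 20% of its maximal response, with an occasional extra EC70 addition. Cells were dye-loaded for about 1 h at 37 °C. Potency is the curve inflection point from a four-parameter logistic fit.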
Usually EC50 stands for the concentration that produces a half-maximal response. Take `COc1ccc(OC2CCN(c3nc(C(=O)NC(C)C)nc(Cl)c3C)CC2)cn1` [Example 213, 4-chloro-N-isopropyl-6-(4-((6-methoxypyridin-3-yl)oxy)piperidin-1-yl)-5-methylpyrimidine-2-carboxamide]: the EC50 stood at 729 nM. In turn, `COc1ccc(OC2CCN(c3nc(C(=O)NC4CCCc5cnccc54)nc(Cl)c3C)CC2)cn1` (stereo not shown) [Example 214, 4-chloro-6-(4-((6-methoxypyridin-3-yl)oxy)piperidin-1-yl)-5-methyl-N-(5,6,7,8-tetrahydroisoquinolin-5-yl)pyrimidine-2-carboxamide] displayed an EC50 of 770 nM. Under `COc1ccc(OC2CCN(c3nc(C(=O)NC4CNC4)nc(Cl)c3C)CC2)cn1` [Example 215, N-(azetidin-3-yl)-4-chloro-6-(4-((6-methoxypyridin-3-yl)oxy)piperidin-1-yl)-5-methylpyrimidine-2-carboxamide] stands 835 nM; under `COc1ccc(OC2CCN(c3nc(C(=O)NC4CCc5ccncc5C4)nc(Cl)c3C)CC2)cn1` (stereo not shown) [Example 216, 4-chloro-6-(4-((6-methoxypyridin-3-yl)oxy)piperidin-1-yl)-5-methyl-N-(5,6,7,8-tetrahydroisoquinolin-7-yl)pyrimidine-2-carboxamide], 997 nM. In the case of `COc1ccc(OC2CCN(c3nc(C(=O)NC4CCc5cccnc5C4)nc(Cl)c3C)CC2)cn1` (stereo not shown) [Example 217, 4-chloro-6-(4-((6-methoxypyridin-3-yl)oxy)piperidin-1-yl)-5-methyl-N-(5,6,7,8-tetrahydroquinolin-7-yl)pyrimidine-2-carboxamide], the EC50 stood at 1020 nM.

The compound `COc1ccc(OC2CCN(c3nc(C(=O)NC4CCc5ncccc5C4)nc(Cl)c3C)CC2)cn1` (stereo not shown) [Example 218, 4-chloro-6-(4-((6-methoxypyridin-3-yl)oxy)piperidin-1-yl)-5-methyl-N-(5,6,7,8-tetrahydroquinolin-6-yl)pyrimidine-2-carboxamide] returned an EC50 of 1050 nM. In turn, `COc1ccc(OC2CCN(c3nc(C(=O)NCc4ccccc4Cl)nc(Cl)c3C)CC2)cn1` [Example 219, 4-chloro-N-(2-chlorobenzyl)-6-(4-((6-methoxypyridin-3-yl)oxy)piperidin-1-yl)-5-methylpyrimidine-2-carboxamide] had an EC50 of 1090 nM. For the compound `COc1ccc(OC2CCN(c3nc(C(=O)NC(C)(C)c4ccncc4)nc(Cl)c3C)CC2)cn1` [Example 220, 4-chloro-6-(4-((6-methoxypyridin-3-yl)oxy)piperidin-1-yl)-5-methyl-N-(2-(pyridin-4-yl)propan-2-yl)pyrimidine-2-carboxamide], a half-maximal response (EC50) required 1430 nM. On to `COc1ccc(OC2CCN(c3nc(C(=O)NC4CCc5ccccc5C4)nc(Cl)c3C)CC2)cn1` (stereo not shown) [Example 221, 4-chloro-6-(4-((6-methoxypyridin-3-yl)oxy)piperidin-1-yl)-5-methyl-N-(1,2,3,4-tetrahydronaphthalen-2-yl)pyrimidine-2-carboxamide], for which the EC50 came to 1830 nM.

In turn, `COc1ccc(O[C@@H]2CCN(c3nc(C(N)=O)nc(Cl)c3C)C[C@@H]2F)cn1` [Example 222, 4-chloro-6-((3S,4R)-3-fluoro-4-((6-methoxypyridin-3-yl)oxy)piperidin-1-yl)-5-methylpyrimidine-2-carboxamide] displayed a concentration giving a half-maximal response (EC50) of 141 nM. Take `COc1ccc(OC2CCN(c3nc(C(=O)N[C@@H]4CCCc5ccccc54)nc(Cl)c3C)CC2)cn1` [Example 223, (R)-4-chloro-6-(4-((6-methoxypyridin-3-yl)oxy)piperidin-1-yl)-5-methyl-N-(1,2,3,4-tetrahydronaphthalen-1-yl)pyrimidine-2-carboxamide]: the response was half-maximal at 3410 nM (EC50). With `COc1ccc(OC2CCN(c3nc(C(=O)N[C@H]4CCCc5ccccc54)nc(Cl)c3C)CC2)cn1` [Example 224, (S)-4-chloro-6-(4-((6-methoxypyridin-3-yl)oxy)piperidin-1-yl)-5-methyl-N-(1,2,3,4-tetrahydronaphthalen-1-yl)pyrimidine-2-carboxamide], a half-maximal response (EC50) required 4850 nM. Compound `COc1ccc(OC2CCN(c3nc(C(=O)NCc4cnsc4)nc(Cl)c3C)CC2)cn1` [Example 225, 4-chloro-N-(isothiazol-4-ylmethyl)-6-(4-((6-methoxypyridin-3-yl)oxy)piperidin-1-yl)-5-methylpyrimidine-2-carboxamide] came in with an EC50 of 321 nM.

Compound `COc1ccc(OC2CCN(c3nc(C(N)=O)nc(Br)c3C)CC2)cn1` [Example 225A, 4-bromo-6-(4-((6-methoxypyridin-3-yl)oxy)piperidin-1-yl)-5-methylpyrimidine-2-carboxamide] showed an EC50 of 62 nM. The compound `COc1ccc(OC2CCN(c3nc(S(C)(=O)=O)nc(Cl)c3C)CC2)cn1` [Example 226, 4-Chloro-6-(4-((6-methoxypyridin-3-yl)oxy)piperidin-1-yl)-5-methyl-2-(methylsulfonyl)pyrimidine] had an EC50 of 231 nM. With `COc1ccc(OC2CCN(c3nc(OC)nc(Cl)c3C)CC2)cn1` [Example 227, 4-Chloro-2-methoxy-6-(4-((6-methoxypyridin-3-yl)oxy)piperidin-1-yl)-5-methylpyrimidine], the response was half-maximal at 55 nM (EC50).

Compound `COc1ccc(OC2CCN(c3nc(NCCO)nc(Cl)c3C)CC2)cn1` [Example 228, 2-((4-Chloro-6-(4-((6-methoxypyridin-3-yl)oxy)piperidin-1-yl)-5-methylpyrimidin-2-yl)amino)ethan-1-ol] showed an EC50 of 156 nM. The same measure for `COc1ccc(OC2CCN(c3ncnc(N4CCc5scnc5C4)c3C)CC2)cn1` [Example 229, 5-(6-(4-((6-methoxypyridin-3-yl)oxy)piperidin-1-yl)-5-methylpyrimidin-4-yl)-4,5,6,7-tetrahydrothiazolo[4,5-c]pyridine]: 807 nM; for `COc1ccc(OC2CCN(c3ncnc(N4C[C@H](F)[C@@H](F)C4)c3C)CC2)cn1` [Example 230, 4-((3S,4S)-3,4-difluoropyrrolidin-1-yl)-6-(4-((6-methoxypyridin-3-yl)oxy)piperidin-1-yl)-5-methylpyrimidine]: 1040 nM; for `COc1ccc(OC2CCN(c3ncnc(N4CCC(F)(F)C4)c3C)CC2)cn1` [Example 231, 4-(3,3-difluoropyrrolidin-1-yl)-6-(4-((6-methoxypyridin-3-yl)oxy)piperidin-1-yl)-5-methylpyrimidine]: 1090 nM. `COc1ccc(OC2CCN(c3ncnc(N4Cc5cccnc5C4)c3C)CC2)cn1` [Example 232, 6-(6-(4-((6-methoxypyridin-3-yl)oxy)piperidin-1-yl)-5-methylpyrimidin-4-yl)-6,7-dihydro-5H-pyrrolo[3,4-b]pyridine] returned an EC50 of 1490 nM.

`COc1ccc(OC2CCN(c3ncnc(N4CC5(COC5)C4)c3C)CC2)cn1` [Example 233, 6-(6-(4-((6-methoxypyridin-3-yl)oxy)piperidin-1-yl)-5-methylpyrimidin-4-yl)-2-oxa-6-azaspiro[3.3]heptane]: the EC50 came to 2100 nM. `CNc1ncnc(N2CCC(Oc3ccc(OC)nc3)CC2)c1C` [Example 234, 6-(4-((6-methoxypyridin-3-yl)oxy)piperidin-1-yl)-N,5-dimethylpyrimidin-4-amine] came in with an EC50 of 134 nM.

`COc1ccc(OC2CCN(c3nc(O)nc(Cl)c3C)CC2)cn1` [Example 235, 4-chloro-6-(4-((6-methoxypyridin-3-yl)oxy)piperidin-1-yl)-5-methylpyrimidin-2-ol] had an EC50 of 248 nM. As for `COc1ccc(OC2CCN(c3ncnc(N4CC(F)(F)C4)c3C)CC2)cn1` [Example 236, 4-(3,3-difluoroazetidin-1-yl)-6-(4-((6-methoxypyridin-3-yl)oxy)piperidin-1-yl)-5-methylpyrimidine], the response was half-maximal at 228 nM (EC50). The same measure for `COc1ccc(OC2CCN(c3ncnc(N4CCCC4)c3C)CC2)cn1` [Example 237, 4-(4-((6-methoxypyridin-3-yl)oxy)piperidin-1-yl)-5-methyl-6-(pyrrolidin-1-yl)pyrimidine]: 1820 nM; for `COc1ccc(OC2CCN(c3ncnc(N4CC5CC4CO5)c3C)CC2)cn1` (stereo not shown) [Example 238, 5-(6-(4-((6-methoxypyridin-3-yl)oxy)piperidin-1-yl)-5-methylpyrimidin-4-yl)-2-oxa-5-azabicyclo[2.2.1]heptane]: 3060 nM. `COc1ccc(OC2CCN(c3ncnc(NCCC(F)(F)F)c3C)CC2)cn1` [Example 239, 6-(4-((6-methoxypyridin-3-yl)oxy)piperidin-1-yl)-5-methyl-N-(3,3,3-trifluoropropyl)pyrimidin-4-amine] came in with an EC50 of 3200 nM. Regarding `COc1ccc(OC2CCN(c3ncnc(N(C)CCc4ccccn4)c3C)CC2)cn1` [Example 240, 6-(4-((6-methoxypyridin-3-yl)oxy)piperidin-1-yl)-N,5-dimethyl-N-(2-(pyridin-2-yl)ethyl)pyrimidin-4-amine], the EC50 is 413 nM. Regarding `COc1ccc(OC2CCN(c3nc(CO)nc(C)c3C)CC2)cn1` [Example 241, (4-(4-((6-Methoxypyridin-3-yl)oxy)piperidin-1-yl)-5,6-dimethylpyrimidin-2-yl)methanol], it took 42 nM to reach a half-maximal effect (EC50). Take `COc1ccc(OC2CCN(c3ncnc(C)c3C)CC2)cn1` [Example 242, 4-(4-((6-methoxypyridin-3-yl)oxy)piperidin-1-yl)-5,6-dimethylpyrimidine]: the midpoint of the response, the EC50, lay at 143 nM.
